This is an account of results in patent US4861897A, “2-Aryloxyalkylaminobenzoxazoles and 2-aryloxyalkylaminobenzothiazoles” (Ortho Pharmaceutical Corporation, priority 1987, dated 1989).

The subject of one test is acid output. As to the kind of experiment: Gastric secretion, acid output in pylorus ligated rats. The class given is in vivo, male Charles River Sprague Dawley derived rats. Conditions: Example 50, i.d. or s.c., four hours after pylorus ligation, compared to control; for % Acid Secreted at mpK: @ 10 mpK; for response vs control in vivo at 20 mg/kg: @ 20 mpK; for response vs control in vivo at 40 mg/kg: @ 40 mpK. The method, then: The inhibitory activity of the compounds on acid output was tested using pylorus ligation in a modification of the procedure of Shay, H. et al., Gastroenterology 26, 906 (1954). Basically, male Charles River Sprague Dawley derived rats weighing 150-300 grams were deprived of food but not water for 18-24 hours prior to use. Water was withheld during the experiment, however. The rats were weighed, anesthetized with ether and the pylorus ligated according to the method of Shay et al., supra. Treatment or vehicle control was then administered intraduodenally (i.d.) or subcutaneously (s.c.). Rats were housed two/cage and sacrificed with CO2 four hours after ligation. The stomachs were removed, rinsed, and contents emptied into a graduated centrifuge tube. The tubes were centrifuged, the volume of gastric juice recorded, and any samples obviously contaminated by feces, food or blood were eliminated. A 1 ml aliquot of gastric juice was titrated with 0.1N NaOH to a pH of 7.0-7.4. The volume of gastric juice secreted, the acid concentration, and the product of the volume times the concentration, i.e., the total amount of acid secreted, were measured.

The subject of test [1] is cAMP stimulated parietal cells. As to the kind of experiment: Isolated parietal cell assay, inhibition of 14C-aminopyrine accumulation, dibutyryl cAMP stimulated. The class given is cell-based, rabbit. Conditions: Oryctolagus cuniculus, 20 min, Example 48, 37° C., read-out: IC50 vcAMP (inhibition of 14C-AP accumulation in cAMP stimulated parietal cells). The method, then:
(§1) Isolated Parietal Cell Assay
(§2) The isolated parietal cell assay was conducted using the procedures of Batzri, S. et al., Biochemica et Biophysica Acta 508, 328 (1978) and Soll, A. H. Am. J. Physiol. 238, G366 (1980). Basically, parietal cells were isolated from the fundic mucosa of rabbit stomachs by a four-stage collagenase digestion process. The supernatant fractions from the last two stages of this process contain the individual parietal cells. This cell suspension was centrifuged and reconstituted in a modified Hank's buffer to contain 1-2×10^6 cells/ml. […] This accumulation was stimulated by histamine and was blocked by H2 antagonists. The cells were incubated with 0.4-0.5×10^6 cpm ^14 C-AP, with various concentrations of histamine as a stimulant, 1×10^-5 M isobutylmethylxanthine, and the test compound added in a 20 μl volume of buffer or DMSO. The flasks were incubated in a shaking water bath at 37° C. for 20 minutes. Two aliquots were then taken from each flask and cell pellets were collected by centrifugation. The pellets were solubilized with Protosol (New England Nuclear) and radioactivity determined by liquid scintillation spectrometry. Data is presented as the IC50 vhist, the concentration of compound required to inhibit ^14 C-AP accumulation in the histamine stimulated parietal cell by 50%. When dibutyryl cAMP was used to stimulate the cells instead of histamine, a similar inhibition of ^14 C-AP accumulation was measured and the data are presented as the IC50 vcAMP, the concentration required to inhibit ^14 C-AP accumulation in the cAMP stimulated parietal cells by 50%.

Test [2] relates to histamine stimulated parietal cell. As to the kind of experiment: Isolated parietal cell assay, inhibition of 14C-aminopyrine accumulation, histamine stimulated. It is filed as cell-based, rabbit. Conditions: Oryctolagus cuniculus, 20 min, Example 48, 37° C., read-out: IC50 vhist (inhibition of 14C-AP accumulation in histamine stimulated parietal cell). The method, then: as §1, §2

The target of test [3] is T1, parietal cell H^+ K^+ ATPase (Oryctolagus cuniculus, UniProt P27112).
T1 construct: determined in fundic mucosa from New Zealand white rabbits which were homogenized; from tissue; host or cells: fundic mucosa of New Zealand white rabbits, homogenized; membrane protein
As to the kind of experiment: Inhibition of parietal cell H+ K+ ATPase. The class given is biochemical, New Zealand white rabbits. The following applies: Example 49; for inhibition at 100 µM: @ 10^-4 M, read-out: % Inhibition at Concentration (H+ K+ ATPase). The method, then:
Inhibition of Parietal Cell H^+ K^+ ATPase
The activity was measured in a 1 ml incubation volume containing 50 mM Tris pH 7.4, 2 mM MgCl2, 2 mM Na2 ATP, with or without 20 mM KCl and vehicle control (dimethylsulfoxide) or test compound added in a 0.02 ml volume. Typically, 20-50 μg membrane protein was added and the tubes were preincubated with test compound for 10 minutes at 37° C. Substrate, Na2 ATP, was then added and the tubes were incubated for another 15 minutes at 37° C. The reaction was stopped by the addition of 1 ml 14% trichloroacetic acid and the samples were centrifuged at 2,000 xg for 10 minutes. The amount of inorganic phosphate present in an aliquot of supernatant was determined. H^+ K^+ ATPase activity was determined after correcting for the basal (Mg^++ only) enzyme activity present in the membrane preparation.

Where [4] appears, read: Rattus norvegicus, 4 h, read-out: % Acid Secreted at mpK.

T1 sequence (P27112 2-1035 limits assumed): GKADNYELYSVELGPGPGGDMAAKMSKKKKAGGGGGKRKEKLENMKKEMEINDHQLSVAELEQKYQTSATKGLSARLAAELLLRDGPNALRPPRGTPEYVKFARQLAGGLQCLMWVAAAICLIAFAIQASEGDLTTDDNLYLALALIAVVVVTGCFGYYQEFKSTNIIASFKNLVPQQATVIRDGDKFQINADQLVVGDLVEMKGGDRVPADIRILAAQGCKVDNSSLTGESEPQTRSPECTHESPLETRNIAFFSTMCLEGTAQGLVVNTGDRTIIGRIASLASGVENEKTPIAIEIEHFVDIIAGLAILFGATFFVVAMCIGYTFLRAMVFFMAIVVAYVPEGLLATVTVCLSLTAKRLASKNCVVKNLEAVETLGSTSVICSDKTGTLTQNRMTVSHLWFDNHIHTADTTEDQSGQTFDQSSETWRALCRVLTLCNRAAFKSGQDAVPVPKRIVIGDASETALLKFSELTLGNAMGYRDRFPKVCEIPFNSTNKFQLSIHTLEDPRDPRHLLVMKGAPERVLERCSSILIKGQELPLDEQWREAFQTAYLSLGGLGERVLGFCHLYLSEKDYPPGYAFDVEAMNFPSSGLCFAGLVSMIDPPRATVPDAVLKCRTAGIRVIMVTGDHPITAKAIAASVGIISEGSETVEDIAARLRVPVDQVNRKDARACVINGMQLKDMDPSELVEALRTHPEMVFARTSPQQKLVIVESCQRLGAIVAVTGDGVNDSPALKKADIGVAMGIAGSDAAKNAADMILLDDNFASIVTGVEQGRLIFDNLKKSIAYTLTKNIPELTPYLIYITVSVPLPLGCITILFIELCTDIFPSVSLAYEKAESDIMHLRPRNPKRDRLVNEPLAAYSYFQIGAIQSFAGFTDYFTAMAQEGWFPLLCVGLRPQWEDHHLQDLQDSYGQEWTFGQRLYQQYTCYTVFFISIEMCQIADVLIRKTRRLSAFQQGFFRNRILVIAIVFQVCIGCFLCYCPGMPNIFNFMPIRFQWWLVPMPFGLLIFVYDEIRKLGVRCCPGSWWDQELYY
T1 sequence (P18597 whole entry partner): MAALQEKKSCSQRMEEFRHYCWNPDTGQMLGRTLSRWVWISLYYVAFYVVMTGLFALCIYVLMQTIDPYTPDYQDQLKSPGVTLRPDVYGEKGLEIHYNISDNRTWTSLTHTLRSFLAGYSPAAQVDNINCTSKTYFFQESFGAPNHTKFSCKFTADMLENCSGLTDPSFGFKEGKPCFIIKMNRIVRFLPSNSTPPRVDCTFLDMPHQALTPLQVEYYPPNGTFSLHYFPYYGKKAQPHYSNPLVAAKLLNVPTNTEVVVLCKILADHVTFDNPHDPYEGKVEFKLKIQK

With `CCCCN(CCCC)CCCOc1cccc(/C=C/c2nc3ccccc3o2)c1` [Example 1], in the test with acid output, the “% Acid Secreted at mpK” value worked out at 52%. The response vs control in vivo at 5 mg/kg in the test on acid output (Rattus norvegicus, 4 h, @ 5 mpK, read-out: % Acid Secreted at mpK) is 44%. Further, the response vs control in vivo at 20 mg/kg in the test on acid output (setting [4]) was determined as 78%. Besides, the IC50 stood at 140 nM in test [1] and 270 nM in test [2]. The inhibition at 100 µM in test [3] came to 49%.
With `CCCN(CCC)CCCOc1ccc(/C=C/c2nc3ccccc3o2)cc1` [Example 9, (E)-2-[2-(4-Dipropylaminopropoxyphenyl)ethenyl]benzoxazole], the “% Acid Secreted at mpK” value with acid output worked out at 29%. In addition, the response vs control in vivo at 20 mg/kg with acid output (setting [4]) was determined as 77%. Moreover, the response vs control in vivo at 40 mg/kg with acid output (setting [4]) was 97%. The IC50 was found to be 350 nM in test [1]; 220 nM in test [2]; 25 µM in test [3] (given as "50% @ x μM", read-out: % Inhibition at Concentration (H+ K+ ATPase): concentration given for 50% inhibition).
Turning to `C(=C\c1nc2ccccc2s1)/c1ccc(OCCn2ccnc2)cc1` [Example 39], in the test on acid output (setting [4]), the response vs control in vivo at 40 mg/kg amounted to 32%. For the same compound, the IC50 in test [1] amounted to 460 nM; in test [2], 390 nM. For the same compound, the inhibition at 100 µM in test [3] amounted to 19%.
On to `COc1ccccc1N1CCN(CCCOc2ccc(/C=C/c3nc4ccccc4o3)cc2)CC1` [Example 14], for which, in the test on acid output (setting [4]), the response vs control in vivo at 20 mg/kg is 8%. In addition, the results for the IC50 in test [1] and in test [2] were 800 nM and 600 nM, respectively. The inhibition at 100 µM in test [3] was found to be 43%.
